Some test systems named below: SK-MEL-5 melanoma; SF-539 CNS; PC-3 prostate; MALME-3M melanoma; SF-268 CNS; KM12 colon; HL-60(TB) leukemia; BT-549 breast; OVCAR-5 ovarian; HT29 colon.
What all share (experiment): NCI-60 cell line screen, 48 h

Drawing on PubChem BioAssay (NCI), this text covers GI50 and TGI for six compounds.

Each structure is given as a SMILES string.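 Compound exposure: 48 hours, 5 concentrations, 96-well plates. Abbreviation: GI50, concentration required for 50% inhibition of growth. TGI marks complete inhibition of growth.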

On to `Cc1c(Nc2nccc3cc(CN4CC[C@@H](O)C4)cnc23)cccc1-c1cccc(-c2nc3cc(CN4CC[C@@H](C(=O)O)C4)cc(C#N)c3o2)c1C`, for which the GI50 in the test with SK-MEL-5 melanoma was 10.2 µM; with SF-539 CNS, 5.9 µM; in the test with PC-3 prostate, 4.17 µM; in the test with MALME-3M melanoma, 4.35 µM; with SF-268 CNS, 10.9 µM; in the test with KM12 colon it was 10.7 µM. Besides, the GI50 was 9.93 µM with HL-60(TB) leukemia, 1.75 µM in the test on BT-549 breast, 53.7 µM in the test with OVCAR-5 ovarian and 2.09 µM in the test with HT29 colon. The TGI in the test with SK-MEL-5 melanoma is 22.7 µM; with SF-539 CNS it was 28.1 µM; in the test with PC-3 prostate, above 100 µM; with MALME-3M melanoma, 23.2 µM; with SF-268 CNS, above 100 µM; in the test on KM12 colon it was 27.6 µM. In addition, the TGI in the test on HL-60(TB) leukemia was 59.7 µM; in the test with BT-549 breast it was 8.68 µM; with OVCAR-5 ovarian, above 100 µM; in the test with HT29 colon, 4.64 µM.
With `CN1CCN(C(=O)c2ccc(NC(=O)Nc3ccc(-c4nc(N5CCOCC5)c5cccn5n4)cc3)cc2)CC1`, the GI50 in the test with SK-MEL-5 melanoma was 0.0803 µM; in the test with SF-539 CNS it was 0.0481 µM; with PC-3 prostate, 0.0488 µM; in the test with MALME-3M melanoma, 0.0295 µM; in the test on SF-268 CNS it was 0.0399 µM; in the test on KM12 colon, 0.0787 µM. Moreover, the GI50 with HL-60(TB) leukemia is 0.101 µM; with BT-549 breast, 0.104 µM; with OVCAR-5 ovarian, 0.0439 µM; in the test on HT29 colon, 0.0487 µM. Also, the TGI in the test on SK-MEL-5 melanoma was determined as 0.394 µM; in the test with SF-539 CNS, 0.393 µM; with PC-3 prostate, 19.3 µM; with MALME-3M melanoma, 0.194 µM; in the test with SF-268 CNS, 12 µM; with KM12 colon it was 13.7 µM. The figures for the TGI in the test on HL-60(TB) leukemia, in the test on BT-549 breast and in the test on OVCAR-5 ovarian were 5.21 µM, 0.789 µM and 12.8 µM, respectively.
As for `CCN1CCN(c2cc(C(=O)Nc3cccc(Nc4ccc5c(OC)cccc5n4)c3)cc(C(F)(F)F)c2)CC1`, the GI50 in the test with SK-MEL-5 melanoma is 1.55 µM; in the test on SF-539 CNS, 3.28 µM; in the test with PC-3 prostate, 0.805 µM; in the test on MALME-3M melanoma it was 0.611 µM; in the test on SF-268 CNS it was 1.76 µM; with KM12 colon, 1.71 µM. Moreover, the GI50 in the test on HL-60(TB) leukemia is 3.82 µM; in the test on BT-549 breast, 3.78 µM; in the test on OVCAR-5 ovarian, 2.78 µM; with HT29 colon, 0.572 µM. Besides, the TGI came out at 5.54 µM in the test with SK-MEL-5 melanoma; 7.31 µM in the test on SF-539 CNS; 2.5 µM with PC-3 prostate; 1.33 µM with MALME-3M melanoma; 7.41 µM with SF-268 CNS; 6.35 µM in the test on KM12 colon. Moreover, the TGI worked out at 11.4 µM in the test with HL-60(TB) leukemia, 8.67 µM with BT-549 breast, 7.84 µM in the test with OVCAR-5 ovarian and 1.21 µM in the test with HT29 colon.
Take `Nc1c(C(=O)c2cccc(C(O)CO)c2)cnn1-c1ccc(F)cc1` (centres undefined): the GI50 in the test with SK-MEL-5 melanoma, in the test with SF-539 CNS, in the test with PC-3 prostate, with MALME-3M melanoma, in the test with SF-268 CNS and with KM12 colon was above 25 µM in each case. For the same compound, the GI50 in the test on HL-60(TB) leukemia was above 12.9 µM; with BT-549 breast, above 25 µM; in the test with OVCAR-5 ovarian it was above 25 µM; with HT29 colon it was above 25 µM. For the same compound, the TGI in the test on SK-MEL-5 melanoma, in the test with SF-539 CNS, in the test with PC-3 prostate, with MALME-3M melanoma, in the test with SF-268 CNS and with KM12 colon was above 25 µM throughout. Also, the TGI in the test with HL-60(TB) leukemia, with BT-549 breast, in the test on OVCAR-5 ovarian and in the test with HT29 colon was above 25 µM each time.
For `COC(=O)CC1(O)C=CC(=O)C=C1`, the TGI in the test with SK-MEL-5 melanoma is 10.3 µM; in the test on SF-539 CNS, 12.8 µM; with PC-3 prostate, 6.35 µM; with MALME-3M melanoma it was 6.9 µM; with SF-268 CNS, 14.8 µM; in the test on KM12 colon, 3.46 µM. Also, the TGI was above 22.6 µM in the test with HL-60(TB) leukemia, 18.1 µM in the test on BT-549 breast, 25 µM in the test with OVCAR-5 ovarian and 17.6 µM in the test with HT29 colon.
Consider `OCCCCC#Cc1ccccc1C#Cc1cccnc1`, for which the GI50 is 54.8 µM with SK-MEL-5 melanoma; 43 µM with SF-539 CNS; 36.3 µM in the test on PC-3 prostate; 37.8 µM in the test with MALME-3M melanoma; 40.3 µM in the test with SF-268 CNS; 35.2 µM in the test with KM12 colon. The GI50 in the test on HL-60(TB) leukemia was 26.8 µM; with BT-549 breast, 28.4 µM; in the test with OVCAR-5 ovarian, 27.5 µM; in the test on HT29 colon, 22.3 µM. The TGI with SK-MEL-5 melanoma is above 100 µM; in the test on SF-539 CNS it was above 100 µM; with PC-3 prostate, above 100 µM; in the test on MALME-3M melanoma, 92.2 µM; in the test with SF-268 CNS, above 100 µM; with KM12 colon, above 100 µM. The TGI in the test on HL-60(TB) leukemia is 75.1 µM; with BT-549 breast it was above 100 µM; with OVCAR-5 ovarian it was above 100 µM; with HT29 colon, 87.8 µM.
